The supplement of paper PMC10307832

Key:
Test in all cases: relative viability (nuclei count vs DMSO), 5 days (fraction); higher = more cells survive
NCI-H1395 = test system: NCI-H1395
Summary of the method: (§1)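 A single step with final 0.05% Triton X-100, 1% formaldehyde and 1 ug/ml Hoechst fixed the cells and stained nuclei 5 days after treatment. Lung cancer cell lines in 1536-well plates had been treated by pin tool the day after seeding with one drug alone or a fixed anchor-drug dose plus five library-drug doses (not always all listed) in √10 steps, and nuclei were counted on 4× images. Relative viability is the ratio of nuclei in treated wells to nuclei in vehicle wells, taken as the median of duplicate plates.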

NCI-H358 = test system: NCI-H358
Summary of the method: as §1

CAL-12T = test system: CAL-12T
Summary of the method: as §1

NCI-H1792 = test system: NCI-H1792
Summary of the method: as §1

NCI-H2085 = test system: NCI-H2085
Summary of the method: as §1

NCI-H2228 = test system: NCI-H2228
Summary of the method: as §1

NCI-H838 = test system: NCI-H838
Summary of the method: as §1

UMC-11 = test system: UMC-11
Summary of the method: as §1

NCI-H1666 = test system: NCI-H1666
Summary of the method: as §1

PC-14 = test system: PC-14
Summary of the method: as §1

LCLC-103H = test system: LCLC-103H
Summary of the method: as §1

NCI-H1651 = test system: NCI-H1651
Summary of the method: as §1

NCI-H322M = test system: NCI-H322M
Summary of the method: as §1

NCI-H2087 = test system: NCI-H2087
Summary of the method: as §1

LK-2 = test system: LK-2
Summary of the method: as §1

NCI-H23 = test system: NCI-H23
Summary of the method: as §1

H3255 = test system: H3255
Summary of the method: as §1

NCI-H1355 = test system: NCI-H1355
Summary of the method: as §1

ABC-1 = test system: ABC-1
Summary of the method: as §1

A-427 = test system: A-427
Summary of the method: as §1

NCI-H661 = test system: NCI-H661
Summary of the method: as §1

**Q.** For COCC1(CO)C(=O)C2CCN1CC2 (stereo unspecified) [PRIMA-1MET] + CC(=O)c1c(C)c2cnc(Nc3ccc(N4CCNCC4)cn3)nc2n(C2CCCC2)c1=O [Palbociclib] (partner 0.5 µM), which relative viability (NCI-H1395; first compound 0.2 µM) is on record?
**A.** 0.665

**Q.** And the relative viability (NCI-H1395; first compound 2 µM)?
**A.** 0.641

**Q.** What about the relative viability (NCI-H1395; first compound 6.325 µM) of the same molecule?
**A.** 0.656

**Q.** What about the relative viability (NCI-H1395; first compound 20 µM) of the same molecule?
**A.** 0.578

**Q.** What about the relative viability (NCI-H358; first compound 0.2 µM) of the same molecule?
**A.** 0.148

**Q.** What about the relative viability (NCI-H358; first compound 0.6325 µM) of the same molecule?
**A.** 0.154

**Q.** And the relative viability (NCI-H358; first compound 2 µM)?
**A.** 0.115

**Q.** What about the relative viability (NCI-H358; first compound 6.325 µM) of the same molecule?
**A.** 0.137

**Q.** And the relative viability (NCI-H358; first compound 20 µM)?
**A.** 0.112

**Q.** And the relative viability (CAL-12T; first compound 0.2 µM)?
**A.** 0.339

**Q.** What about the relative viability (CAL-12T; first compound 0.6325 µM) of the same molecule?
**A.** 0.373

**Q.** And the relative viability (CAL-12T; first compound 2 µM)?
**A.** 0.446

**Q.** What about the relative viability (CAL-12T; first compound 6.325 µM) of the same molecule?
**A.** 0.439

**Q.** What about the relative viability (CAL-12T; first compound 20 µM) of the same molecule?
**A.** 0.0494

**Q.** What about the relative viability (NCI-H1792; first compound 0.2 µM) of the same molecule?
**A.** 0.633

**Q.** And the relative viability (NCI-H1792; first compound 0.6325 µM)?
**A.** 0.596

**Q.** And the relative viability (NCI-H1792; first compound 2 µM)?
**A.** 0.622

**Q.** What about the relative viability (NCI-H1792; first compound 6.325 µM) of the same molecule?
**A.** 0.7

**Q.** And the relative viability (NCI-H1792; first compound 20 µM)?
**A.** 0.638

**Q.** What about the relative viability (NCI-H2085; first compound 0.2 µM) of the same molecule?
**A.** 0.526

**Q.** And the relative viability (NCI-H2085; first compound 0.6325 µM)?
**A.** 0.515

**Q.** What about the relative viability (NCI-H2085; first compound 2 µM) of the same molecule?
**A.** 0.475

**Q.** What about the relative viability (NCI-H2085; first compound 6.325 µM) of the same molecule?
**A.** 0.472

**Q.** And the relative viability (NCI-H2085; first compound 20 µM)?
**A.** 0.166

**Q.** And the relative viability (NCI-H2228; first compound 0.2 µM)?
**A.** 0.631

**Q.** And the relative viability (NCI-H2228; first compound 0.6325 µM)?
**A.** 0.778

**Q.** And the relative viability (NCI-H2228; first compound 2 µM)?
**A.** 0.742

**Q.** And the relative viability (NCI-H2228; first compound 6.325 µM)?
**A.** 0.402

**Q.** And the relative viability (NCI-H2228; first compound 20 µM)?
**A.** 0.0392

**Q.** What about the relative viability (NCI-H838; first compound 0.2 µM) of the same molecule?
**A.** 0.261

**Q.** What about the relative viability (NCI-H838; first compound 0.6325 µM) of the same molecule?
**A.** 0.188

**Q.** What about the relative viability (NCI-H838; first compound 2 µM) of the same molecule?
**A.** 0.207

**Q.** What about the relative viability (NCI-H838; first compound 6.325 µM) of the same molecule?
**A.** 0.22

**Q.** And the relative viability (NCI-H838; first compound 20 µM)?
**A.** 0.232

**Q.** And the relative viability (UMC-11; first compound 0.2 µM)?
**A.** 0.31

**Q.** What about the relative viability (UMC-11; first compound 0.6325 µM) of the same molecule?
**A.** 0.362

**Q.** And the relative viability (UMC-11; first compound 2 µM)?
**A.** 0.268

**Q.** And the relative viability (UMC-11; first compound 6.325 µM)?
**A.** 0.356

**Q.** And the relative viability (UMC-11; first compound 20 µM)?
**A.** 0.278

**Q.** And the relative viability (NCI-H1666; first compound 0.2 µM)?
**A.** 0.69

**Q.** What about the relative viability (NCI-H1666; first compound 0.6325 µM) of the same molecule?
**A.** 0.647

**Q.** What about the relative viability (NCI-H1666; first compound 2 µM) of the same molecule?
**A.** 0.614

**Q.** And the relative viability (NCI-H1666; first compound 6.325 µM)?
**A.** 0.699

**Q.** And the relative viability (NCI-H1666; first compound 20 µM)?
**A.** 0.695

**Q.** And the relative viability (PC-14; first compound 0.2 µM)?
**A.** 0.644

**Q.** And the relative viability (PC-14; first compound 0.6325 µM)?
**A.** 0.476

**Q.** What about the relative viability (PC-14; first compound 2 µM) of the same molecule?
**A.** 0.509

**Q.** What about the relative viability (PC-14; first compound 6.325 µM) of the same molecule?
**A.** 0.525

**Q.** What about the relative viability (PC-14; first compound 20 µM) of the same molecule?
**A.** 0.0303

**Q.** And the relative viability (LCLC-103H; first compound 0.2 µM)?
**A.** 0.488

**Q.** What about the relative viability (LCLC-103H; first compound 0.6325 µM) of the same molecule?
**A.** 0.376

**Q.** And the relative viability (LCLC-103H; first compound 2 µM)?
**A.** 0.466

**Q.** And the relative viability (LCLC-103H; first compound 6.325 µM)?
**A.** 0.484

**Q.** What about the relative viability (LCLC-103H; first compound 20 µM) of the same molecule?
**A.** 0.425

**Q.** What about the relative viability (NCI-H1651; first compound 0.2 µM) of the same molecule?
**A.** 0.602

**Q.** And the relative viability (NCI-H1651; first compound 0.6325 µM)?
**A.** 0.389

**Q.** What about the relative viability (NCI-H1651; first compound 2 µM) of the same molecule?
**A.** 0.473

**Q.** And the relative viability (NCI-H1651; first compound 6.325 µM)?
**A.** 0.569

**Q.** What about the relative viability (NCI-H1651; first compound 20 µM) of the same molecule?
**A.** 0.526

**Q.** What about the relative viability (NCI-H322M; first compound 0.2 µM) of the same molecule?
**A.** 0.535

**Q.** What about the relative viability (NCI-H322M; first compound 0.6325 µM) of the same molecule?
**A.** 0.515

**Q.** What about the relative viability (NCI-H322M; first compound 6.325 µM) of the same molecule?
**A.** 0.525

**Q.** And the relative viability (NCI-H322M; first compound 20 µM)?
**A.** 0.34

**Q.** What about the relative viability (NCI-H2087; first compound 0.6325 µM) of the same molecule?
**A.** 0.183

**Q.** And the relative viability (NCI-H2087; first compound 2 µM)?
**A.** 0.22

**Q.** What about the relative viability (NCI-H2087; first compound 6.325 µM) of the same molecule?
**A.** 0.203

**Q.** What about the relative viability (NCI-H2087; first compound 20 µM) of the same molecule?
**A.** 0.13

**Q.** And the relative viability (LK-2; first compound 0.2 µM)?
**A.** 0.814

**Q.** And the relative viability (LK-2; first compound 0.6325 µM)?
**A.** 0.705

**Q.** What about the relative viability (LK-2; first compound 2 µM) of the same molecule?
**A.** 0.534

**Q.** What about the relative viability (LK-2; first compound 6.325 µM) of the same molecule?
**A.** 0.211

**Q.** And the relative viability (LK-2; first compound 20 µM)?
**A.** 0.0375

**Q.** And the relative viability (NCI-H23; first compound 0.2 µM)?
**A.** 0.469

**Q.** And the relative viability (NCI-H23; first compound 0.6325 µM)?
**A.** 0.351

**Q.** What about the relative viability (NCI-H23; first compound 2 µM) of the same molecule?
**A.** 0.416

**Q.** And the relative viability (NCI-H23; first compound 6.325 µM)?
**A.** 0.538

**Q.** And the relative viability (NCI-H23; first compound 20 µM)?
**A.** 0.121

**Q.** What about the relative viability (H3255; first compound 0.2 µM) of the same molecule?
**A.** 0.319

**Q.** And the relative viability (H3255; first compound 0.6325 µM)?
**A.** 0.293

**Q.** And the relative viability (H3255; first compound 2 µM)?
**A.** 0.312

**Q.** What about the relative viability (H3255; first compound 6.325 µM) of the same molecule?
**A.** 0.294

**Q.** What about the relative viability (H3255; first compound 20 µM) of the same molecule?
**A.** 0.33

**Q.** What about the relative viability (NCI-H1355; first compound 0.2 µM) of the same molecule?
**A.** 0.465

**Q.** What about the relative viability (NCI-H1355; first compound 0.6325 µM) of the same molecule?
**A.** 0.393

**Q.** And the relative viability (NCI-H1355; first compound 2 µM)?
**A.** 0.328

**Q.** And the relative viability (NCI-H1355; first compound 6.325 µM)?
**A.** 0.436

**Q.** What about the relative viability (NCI-H1355; first compound 20 µM) of the same molecule?
**A.** 0.414

**Q.** What about the relative viability (ABC-1; first compound 0.2 µM) of the same molecule?
**A.** 0.984

**Q.** What about the relative viability (ABC-1; first compound 2 µM) of the same molecule?
**A.** 0.482

**Q.** What about the relative viability (ABC-1; first compound 6.325 µM) of the same molecule?
**A.** 0.552

**Q.** What about the relative viability (ABC-1; first compound 20 µM) of the same molecule?
**A.** 0.181

**Q.** What about the relative viability (A-427; first compound 0.2 µM) of the same molecule?
**A.** 0.574

**Q.** And the relative viability (A-427; first compound 0.6325 µM)?
**A.** 0.523

**Q.** And the relative viability (A-427; first compound 2 µM)?
**A.** 0.576

**Q.** What about the relative viability (A-427; first compound 6.325 µM) of the same molecule?
**A.** 0.49

**Q.** And the relative viability (A-427; first compound 20 µM)?
**A.** 0.525

**Q.** What about the relative viability (NCI-H661; first compound 0.2 µM) of the same molecule?
**A.** 0.418

**Q.** What about the relative viability (NCI-H661; first compound 0.6325 µM) of the same molecule?
**A.** 0.391

**Q.** What about the relative viability (NCI-H661; first compound 2 µM) of the same molecule?
**A.** 0.414

**Q.** What about the relative viability (NCI-H661; first compound 6.325 µM) of the same molecule?
**A.** 0.423

**Q.** What about the relative viability (NCI-H661; first compound 20 µM) of the same molecule?
**A.** 0.446
